pIC50: −log10 of the molar value.

truncated form of human NaV 1.8 with full channel activity, sequence (Q9Y5Y9 126-1722 limits assumed): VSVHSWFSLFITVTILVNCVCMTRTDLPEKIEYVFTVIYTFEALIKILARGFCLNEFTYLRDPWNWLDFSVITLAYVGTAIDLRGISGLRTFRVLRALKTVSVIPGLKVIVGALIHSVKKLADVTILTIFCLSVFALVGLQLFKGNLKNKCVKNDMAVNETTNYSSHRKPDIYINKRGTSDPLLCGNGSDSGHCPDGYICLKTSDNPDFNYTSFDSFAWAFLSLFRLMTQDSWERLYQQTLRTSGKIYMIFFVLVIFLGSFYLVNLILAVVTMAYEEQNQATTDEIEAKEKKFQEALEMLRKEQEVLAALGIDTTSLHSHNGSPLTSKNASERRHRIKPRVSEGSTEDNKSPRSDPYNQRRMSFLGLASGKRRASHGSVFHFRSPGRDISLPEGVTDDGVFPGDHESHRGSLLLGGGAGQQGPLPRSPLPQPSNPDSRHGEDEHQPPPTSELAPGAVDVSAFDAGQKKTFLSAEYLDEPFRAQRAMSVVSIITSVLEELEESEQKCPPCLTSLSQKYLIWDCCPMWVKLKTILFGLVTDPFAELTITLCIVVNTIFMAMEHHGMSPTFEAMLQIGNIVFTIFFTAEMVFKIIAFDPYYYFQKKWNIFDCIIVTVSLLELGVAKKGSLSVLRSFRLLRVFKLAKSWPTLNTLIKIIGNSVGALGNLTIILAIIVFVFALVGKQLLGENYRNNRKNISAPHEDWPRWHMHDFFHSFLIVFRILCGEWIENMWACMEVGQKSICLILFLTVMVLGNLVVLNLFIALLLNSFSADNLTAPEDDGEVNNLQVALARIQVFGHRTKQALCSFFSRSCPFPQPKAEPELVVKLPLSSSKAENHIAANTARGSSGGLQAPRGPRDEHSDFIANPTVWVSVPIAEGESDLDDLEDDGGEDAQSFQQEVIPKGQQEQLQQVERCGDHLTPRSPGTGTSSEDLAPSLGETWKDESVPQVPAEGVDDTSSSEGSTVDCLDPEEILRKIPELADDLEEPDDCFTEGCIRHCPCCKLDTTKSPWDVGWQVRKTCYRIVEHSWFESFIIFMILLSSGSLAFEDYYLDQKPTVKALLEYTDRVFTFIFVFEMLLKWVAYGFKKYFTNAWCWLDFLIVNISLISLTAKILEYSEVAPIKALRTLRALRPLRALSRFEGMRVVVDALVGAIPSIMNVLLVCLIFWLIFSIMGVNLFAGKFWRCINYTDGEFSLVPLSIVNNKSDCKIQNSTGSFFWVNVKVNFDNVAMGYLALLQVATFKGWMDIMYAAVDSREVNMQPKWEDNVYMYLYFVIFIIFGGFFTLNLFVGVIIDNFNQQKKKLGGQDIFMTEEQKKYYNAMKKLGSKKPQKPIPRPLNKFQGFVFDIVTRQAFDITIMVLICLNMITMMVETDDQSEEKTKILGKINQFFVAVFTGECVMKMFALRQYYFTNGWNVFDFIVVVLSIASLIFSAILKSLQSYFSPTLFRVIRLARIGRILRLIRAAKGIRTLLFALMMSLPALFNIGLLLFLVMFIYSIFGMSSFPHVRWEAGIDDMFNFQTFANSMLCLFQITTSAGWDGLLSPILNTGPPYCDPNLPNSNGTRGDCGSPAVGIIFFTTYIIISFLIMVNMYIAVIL

For this assay, the target named is truncated form of human NaV 1.8 with full channel activity (Homo sapiens, UniProt Q9Y5Y9). Briefly: E-VIPR Assay Method A for detecting and measuring Nav inhibition (HEK cells, membrane potential FRET dyes, electrical stimulation). The assay is classed as cell-based. Conditions: HEK cells expressing human NaV 1.8, HS (human serum) in compound loading buffer, 11 point dose response, top dose 3 μM, Table 20A, read-out: Nav 1.8 MedChem Optical Assay EVIPR Assay Method A HS IC50. The essentials:
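HEK cells expressing truncated human NaV1.8, loaded with CC2-DMPE/DiSBAC6(3) FRET dyes, incubated 30 min at room temp with compound (0.625% DMSO), then electrically stimulated (1.25 A biphasic, 10 Hz, 10 s). Inhibition from 460/580 nm ratio Rf/Ri, normalised to positive and DMSO controls.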
Turning to `COc1cc(OC(F)(F)F)ccc1Oc1ccc(F)c(F)c1C(=O)Nc1ccc(F)c(C(N)=O)c1` [Compound 55, N-(3-Carbamoyl-4-fluoro-phenyl)-2,3-difluoro-6-[2-methoxy-4-(trifluoromethoxy)phenoxy]benzamide], the negative logarithm of the IC50 (pIC50) is 7.74.
Regarding `COc1cc(OC(F)(F)F)ccc1Oc1cc(C(F)(F)F)ncc1C(=O)Nc1cc(C)nc(C(N)=O)c1` [Compound 84, 4-[[4-[2-Methoxy-4-(trifluoromethoxy)phenoxy]-6-(trifluoromethyl)pyridine-3-carbonyl]amino]-6-methyl-pyridine-2-carboxamide], the pIC50 is 6.24.
For `COc1cc(Oc2ccc(C(F)(F)F)c(F)c2C(=O)Nc2ccc(F)c(C(N)=O)c2)ccc1OC(F)(F)F` [Compound 126, N-(3-Carbamoyl-4-fluoro-phenyl)-2-fluoro-6-[3-methoxy-4-(trifluoromethoxy)phenoxy]-3-(trifluoromethyl)benzamide] the value was 7.33.
Turning to `COc1cc(OC(F)(F)F)ccc1Oc1cc(C(F)(F)F)ncc1C(=O)Nc1cccc(C(N)=O)c1` [Compound 29, N-(3-Carbamoylphenyl)-4-[2-methoxy-4-(trifluoromethoxy)phenoxy]-6-(trifluoromethyl)pyridine-3-carboxamide], the negative-log IC50 (pIC50) is 6.95.
As to `NC(=O)c1cc(NC(=O)c2c(Oc3cccc4c3OCC4)ccc(C(F)(F)F)c2F)ccc1F` [Compound 58, N-(3-Carbamoyl-4-fluoro-phenyl)-6-(2,3-dihydrobenzofuran-7-yloxy)-2-fluoro-3-(trifluoromethyl)benzamide], the pIC50 is 6.72.
As to `NC(=O)c1cc(NC(=O)c2cnc(C3CC3)cc2Oc2ccc(OC(F)(F)F)c(Cl)c2)ccc1F` [Compound 36, N-(3-Carbamoyl-4-fluoro-phenyl)-4-[3-chloro-4-(trifluoromethoxy)phenoxy]-6-cyclopropyl-pyridine-3-carboxamide], the pIC50 was 6.67.
Regarding `[2H]C([2H])([2H])Oc1c(Oc2ccc(C(F)F)c(F)c2C(=O)Nc2ccc(C(N)=O)nc2)ccc(OC(F)(F)F)c1F` [Compound 236, 5-[[3-(Difluoromethyl)-2-fluoro-6-[3-fluoro-2-(trideuteriomethoxy)-4-(trifluoromethoxy)phenoxy]benzoyl]amino]pyridine-2-carboxamide], the pIC50 was 7.35.
For `NC(=O)c1ccc(NC(=O)c2c(Oc3ccc(OC(F)(F)F)cc3)ccc(C(F)(F)F)c2F)cc1` [Compound 264, N-(4-carbamoylphcnyl)-2-fluoro-6-(4-(trifluoromethoxy)phenoxy)-3-(trifluoromethyl)benzamide] the value was 7.27.
In the case of `NC(=O)c1ccc(NC(=O)c2c(Cl)cc(Cl)cc2Oc2ccc(F)cc2)cn1` [Compound 181, 5-[[2,4-Dichloro-6-(4-fluorophenoxy)benzoyl]amino]pyridine-2-carboxamide], the pIC50 was 5.68.
For `NC(=O)c1cc(NC(=O)c2c(Oc3ccc(OC(F)(F)F)cc3)ccc(Cl)c2F)ccc1F` [Compound 73, N-(3-Carbamoyl-4-fluoro-phenyl)-3-chloro-2-fluoro-6-[4-(trifluoromethoxy)phenoxy]benzamide] the value was 7.64.
In the case of `COc1ccc(Oc2ccc(C(F)(F)F)c(F)c2C(=O)Nc2ccnc(C(N)=O)c2)c(OC(F)(F)F)c1` [Compound 196, 4-[[2-Fluoro-6-[4-methoxy-2-(trifluoromethoxy)phenoxy]-3-(trifluoromethyl)benzoyl]amino]pyridine-2-carboxamide], the pIC50 is 7.36.
With `CNC(=O)c1cc(NC(=O)c2cnc(C(F)(F)F)cc2Oc2ccc(OC(F)(F)F)cc2OC)cc(C)n1` [Compound 265, 4-[[4-[2-methoxy-4-(trifluoromethoxy)phenoxy]-6-(trifluoromethyl)pyridine-3-carbonyl]amino]-N,6-dimethyl-pyridine-2-carboxamide], the pIC50 was 5.84.
`[2H]C([2H])([2H])Oc1c(Oc2cc(Cl)cc(Cl)c2C(=O)Nc2ccnc(C(N)=O)c2)ccc(OC(F)(F)F)c1F` [Compound 224, 4-[[2,4-Dichloro-6-[3-fluoro-2-(trideuteriomethoxy)-4-(trifluoromethoxy)phenoxy]benzoyl]amino]pyridine-2-carboxamide]: the pIC50 is 8.05.
Then `COc1cc(OC(F)(F)F)ccc1Oc1cc2c(cc1C(=O)Nc1ccc(C(N)=O)nc1)OC(F)(F)O2` [Compound 197, 5-[[2,2-Difluoro-6-[2-methoxy-4-(trifluoromethoxy)phenoxy]-1,3-benzodioxole-5-carbonyl]amino]pyridine-2-carboxamide], with 6.34; and `Cc1cc(OC(F)(F)F)ccc1Oc1ccc(C(F)(F)F)c(F)c1C(=O)Nc1ccc(C(N)=O)c(F)c1` [Compound 66, N-(4-carbamoyl-3-fluoro-phenyl)-2-fluoro-6-[2-methyl-4-(trifluoromethoxy)phenoxy]-3-(trifluoromethyl)benzamide], with 7.42.
Then `COc1cc(OC(F)(F)F)ccc1Oc1ccc(C(F)(F)F)c(OC)c1C(=O)Nc1cc(C(N)=O)ncc1F` [Compound 128, 5-Fluoro-4-(2-methoxy-6-(2-methoxy-4-(trifluoromethoxy)phenoxy)-3-(trifluoromethyl)benzamido)picolinamide], with 7.74; and `[2H]C([2H])([2H])Oc1c(Oc2ccc(C(F)(F)F)c(F)c2C(=O)Nc2ccnc(C(N)=O)c2)ccc(OC(F)(F)F)c1F` [Compound 218, 4-[[2-Fluoro-6-[3-fluoro-2-(trideuteriomethoxy)-4-(trifluoromethoxy)phenoxy]-3-(trifluoromethyl)benzoyl]amino]pyridine-2-carboxamide], with 8.70; and `COc1cc(OC(F)(F)F)ccc1Oc1cnc(C(F)(F)F)c(F)c1C(=O)Nc1ccc(C(N)=O)nc1` [Compound 194, N-(6-carbamoyl-3-pyridyl)-3-fluoro-5-[2-methoxy-4-(trifluoromethoxy)phenoxy]-2-(trifluoromethyl)pyridine-4-carboxamide], with 7.68.
For `COc1cc(OC(F)(F)F)ccc1Oc1cncc(F)c1C(=O)Nc1ccc(F)c(C(N)=O)n1` [Compound 164, 3-Fluoro-6-[[3-fluoro-5-[2-methoxy-4-(trifluoromethoxy)phenoxy]pyridine-4-carbonyl]amino]pyridine-2-carboxamide] the value was 5.80; for `COc1cc(OC(F)(F)F)ccc1Oc1cc(C2(C)CC2)ncc1C(=O)Nc1ccnc(C(N)=O)c1` [Compound 105, N-(2-Carbamoyl-4-pyridyl)-4-[2-methoxy-4-(trifluoromethoxy)phenoxy]-6-(1-methylcyclopropyl)pyridine-3-carboxamide], 7.36.
For `COc1cc(OC(F)(F)F)ccc1Oc1ccc(C(F)(F)F)c(F)c1C(=O)Nc1cc(C(N)=O)ncc1F` [Compound 123, 5-Fluoro-4-[[2-fluoro-6-[2-methoxy-4-(trifluoromethoxy)phenoxy]-3-(trifluoromethyl)benzoyl]amino]pyridine-2-carboxamide], the negative-log IC50 (pIC50) was 8.30.
For the molecule `[2H]C([2H])([2H])Oc1c(Oc2ccc(C(F)(F)F)c(F)c2C(=O)Nc2ccc(C(=O)NC)nc2)ccc(OC(F)(F)F)c1F` [Compound 229, 5-[[2-Fluoro-6-[3-fluoro-2-(trideuteriomethoxy)-4-(trifluoromethoxy)phenoxy]-3-(trifluoromethyl)benzoyl]amino]-N-methyl-pyridine-2-carboxamide], the pIC50 was 7.33.
Then `[2H]C([2H])([2H])Oc1cc(OC(F)(F)F)ccc1Oc1ccc(C(F)(F)F)c(F)c1C(=O)Nc1cc(C(N)=O)ncc1C` [Compound 137, 4-[[2-Fluoro-6-[2-(trideuteriomethoxy)-4-(trifluoromethoxy)phenoxy]-3-(trifluoromethyl)benzoyl]amino]-5-methyl-pyridine-2-carboxamide], with 8.30; and `NC(=O)c1cc(NC(=O)c2c(F)c(C(F)(F)F)cc(OCc3ccccc3)c2Oc2ccc(OC(F)(F)F)cc2)ccc1F` [Compound 217, 5-Benzyloxy-N-(3-carbamoyl-4-fluoro-phenyl)-2-fluoro-6-[4-(trifluoromethoxy)phenoxy]-3-(trifluoromethyl)benzamide], with 5.96.
As for `NC(=O)c1cc(NC(=O)c2c(Oc3ccc(OC(F)(F)F)cc3)ccc(Cl)c2F)ccn1` [Compound 70, 4-[[3-Chloro-2-fluoro-6-[4-(trifluoromethoxy)phenoxy]benzoyl]amino]pyridine-2-carboxamide], the pIC50 is 7.28.
As for `COc1cc(OC(F)(F)F)ccc1Oc1ccc(C(F)(F)F)c(F)c1C(=O)Nc1cccc(C(=O)N(C)C)c1` [Compound 96, N-[3-(dimethylcarbamoyl)phenyl]-2-fluoro-6-[2-methoxy-4-(trifluoromethoxy)phenoxy]-3-(trifluoromethyl)benzamide], the pIC50 is 7.27.
Then `COc1c(C(F)(F)F)ccc(Oc2ccc(OC(F)(F)F)cc2)c1C(=O)Nc1ccc(C(N)=O)c(F)c1` [Compound 132, N-(4-Carbamoyl-3-fluoro-phenyl)-2-methoxy-6-[4-(trifluoromethoxy)phenoxy]-3-(trifluoromethyl)benzamide], with 6.85.
With `COc1cc(OC(F)(F)F)ccc1Oc1cc(C(F)(F)F)ncc1C(=O)Nc1ccc(C)c(C(N)=O)c1` [Compound 238, N-(3-carbamoyl-4-methyl-phenyl)-4-[2-methoxy-4-(trifluoromethoxy)phenoxy]-6-(trifluoromethyl)pyridine-3-carboxamide], the pIC50 was 6.40.
As for `COc1ncccc1Oc1cc(Cl)c(Cl)cc1C(=O)Nc1ccc(F)c(C(N)=O)c1` [Compound 35, N-(3-carbamoyl-4-fluoro-phenyl)-4,5-dichloro-2-[(2-methoxy-3-pyridyl)oxy]benzamide], the pIC50 is 6.60.
In the case of `Cc1cc(OC(F)(F)F)ccc1Oc1ccc(C(F)(F)F)c(F)c1C(=O)Nc1ccnc(C(N)=O)c1` [Compound 59, 4-[[2-fluoro-6-[2-methyl-4-(trifluoromethoxy)phenoxy]-3-(trifluoromethyl)benzoyl]amino]pyridine-2-carboxamide], the negative logarithm of the IC50 (pIC50) is 8.15.

For orientation: pIC50 means the negative decadic logarithm of the IC50, by convention in mol/L.

Values taken from patent publication US12281057B2 (VERTEX PHARMACEUTICALS INCORPORATED, priority 2017, dated 2025).
